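Tested at 5 concentrations; 48 h exposure; 96-well plates; endpoints linearly interpolated, else capped at highest concentration. Abbreviation: GI50, concentration required for 50% inhibition of growth.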 Activity calls are given as the source filed them. No stated cut-off is given here; in the data, active = GI50 up to about 1.1 µM and inactive = higher. A value given as a limit tells only on which side of the number the result lay.

Test systems include A498; CAKI-1; DMS-114; DMS-273; HCC 2998; HCT-116; M19-MEL; MCF7; Malme-3M; NCI-H522; NCI/ADR-RES; RXF 393; SK-MEL-5; SNB-78; LXFL 529; M14; SR; XF498; MDA-MB-231; MDA-N.
Holding throughout (assay): inhibition of tumour cell growth, NCI panel, 48 h

Take `CCCCc1nccc2c(C)c3[nH]c4ccccc4c3cc12`: the GI50 with A498 is 4.67 µM (inactive); with CAKI-1 it was 2.59 µM (inactive); with DMS-114, 1.59 µM (inactive); with DMS-273 it was 0.883 µM (active); in the experiment with HCC 2998, 3.44 µM (inactive); in the experiment on HCT-116, 1.77 µM (inactive). In addition, the GI50 in the experiment with M19-MEL is 3.1 µM (inactive); in the experiment with MCF7, 2.69 µM (inactive); with Malme-3M it was 6.04 µM (inactive); with NCI-H522 it was 1.91 µM (inactive); with NCI/ADR-RES, 1.71 µM (inactive); in the experiment on RXF 393 it was 2.22 µM (inactive). Moreover, the GI50 was 2.24 µM (inactive) in the experiment on SK-MEL-5 and 5.64 µM (inactive) in the experiment on SNB-78.

`NCCCCNCCCNC(=O)c1nc(-c2csc(CCN)n2)sc1Cl`: the GI50 in the experiment on A498, in the experiment with CAKI-1, with DMS-114, in the experiment with DMS-273, in the experiment with HCC 2998 and in the experiment with HCT-116 was > 100 µM (inactive) each time. Besides, the GI50 is 17.9 µM (inactive) in the experiment on LXFL 529; > 100 µM (inactive) in the experiment with M14; > 100 µM (inactive) in the experiment on M19-MEL; > 100 µM (inactive) in the experiment with Malme-3M; > 100 µM (inactive) in the experiment on NCI-H522; > 100 µM (inactive) in the experiment with RXF 393. In addition, the GI50 in the experiment with SK-MEL-5, in the experiment on SNB-78, in the experiment with SR and in the experiment with XF498 was > 100 µM (inactive) throughout.

`CC(C)OP(=O)(OC(C)C)C1=NN(c2ccc([N+](=O)[O-])cc2)C(P(=O)(OC(C)C)OC(C)C)=NN1c1ccc([N+](=O)[O-])cc1`: the GI50 in the experiment on CAKI-1 was 63.5 µM (inactive); in the experiment with DMS-114, 12.8 µM (inactive); in the experiment with DMS-273, 22.5 µM (inactive); in the experiment with HCC 2998, 47.2 µM (inactive); in the experiment on HCT-116, 7.6 µM (inactive); with LXFL 529, 22.9 µM (inactive). Moreover, the GI50 in the experiment on M14 is > 100 µM (inactive); in the experiment with M19-MEL, > 100 µM (inactive); with Malme-3M it was 72.1 µM (inactive); in the experiment on NCI-H522, 46 µM (inactive); in the experiment on RXF 393, > 100 µM (inactive); with SK-MEL-5, 24.5 µM (inactive). Further, the GI50 in the experiment on SR is 9.08 µM (inactive); with XF498, 7.98 µM (inactive).

With `O=C1CCC[C@H]2O[C@@H](COC(=O)c3ccccc3)C[C@H]2O1`, the GI50 with A498, with CAKI-1, in the experiment on M14, in the experiment on MCF7, in the experiment with MDA-MB-231 and with MDA-N was > 100 µM (inactive) throughout. Moreover, the GI50 in the experiment on NCI/ADR-RES, with SK-MEL-5 and in the experiment with SR was > 100 µM (inactive) throughout.

Take `C=C(C[C@@H](O)[C@H](C)NC(=O)OCc1ccccc1)C(=O)OC(C)(C)C`: the GI50 is > 100 µM (inactive) with A498; 53.6 µM (inactive) with CAKI-1; > 100 µM (inactive) in the experiment with HCC 2998; > 100 µM (inactive) in the experiment with HCT-116; > 100 µM (inactive) with M14; 61.7 µM (inactive) in the experiment with MCF7. Besides, the GI50 is > 100 µM (inactive) in the experiment on MDA-MB-231; 29.7 µM (inactive) in the experiment on MDA-N; > 100 µM (inactive) in the experiment with Malme-3M; 38.6 µM (inactive) in the experiment with NCI-H522; 66.2 µM (inactive) with NCI/ADR-RES; 26.1 µM (inactive) with SK-MEL-5. For the same compound, the GI50 in the experiment on SR is 29.6 µM (inactive).

Take `O=S1(=O)C(=C(c2ccccc2)c2ccccc2)S(=O)(=O)c2ccccc21`: the GI50 in the experiment on A498 was > 74.3 µM (inactive); in the experiment with CAKI-1 it was > 87.5 µM (inactive); in the experiment with DMS-114, 65.3 µM (inactive); in the experiment on DMS-273, > 100 µM (inactive); with HCC 2998, 97.1 µM (inactive); in the experiment on HCT-116, > 100 µM (inactive). Moreover, the GI50 with M19-MEL was > 100 µM (inactive); in the experiment with MCF7 it was 7.46 µM (inactive); in the experiment with Malme-3M, 53.1 µM (inactive); in the experiment on NCI-H522 it was > 100 µM (inactive); with NCI/ADR-RES, > 100 µM (inactive); with RXF 393, 34.1 µM (inactive). Besides, the GI50 with SK-MEL-5 was > 89.7 µM (inactive); with SNB-78, 39.8 µM (inactive); in the experiment on XF498, 24.7 µM (inactive).

As for `O=C(NCCN(CCNC(=O)c1cccc(=O)n1O)CCNC(=O)c1cccc(=O)n1O)c1cccc(=O)n1O`, the GI50 in the experiment on A498, in the experiment with CAKI-1, in the experiment with HCC 2998, in the experiment on M14, in the experiment with MCF7 and in the experiment with MDA-MB-231 was > 100 µM (inactive) in each case. Also, the GI50 with MDA-N, in the experiment on Malme-3M, with NCI-H522, in the experiment on NCI/ADR-RES, in the experiment on RXF 393 and with SK-MEL-5 was > 100 µM (inactive) throughout. Also, the GI50 with SR is > 100 µM (inactive).

For the compound `Cc1ccc(S(=O)(=O)Oc2cc(-c3ccccc3)nc3ccccc23)cc1`, the GI50 in the experiment with A498 was 2.36 µM (inactive); with DMS-114 it was 0.333 µM (active); in the experiment on DMS-273, 1.04 µM (active); in the experiment on HCC 2998, 1 µM (active); in the experiment with HCT-116, 2.36 µM (inactive); in the experiment with M19-MEL, 3.3 µM (inactive). Also, the GI50 in the experiment on MCF7 is 0.604 µM (active); in the experiment with Malme-3M, 1.58 µM (inactive); with NCI-H522, 1.13 µM (inactive); in the experiment with NCI/ADR-RES, 1.95 µM (inactive); in the experiment on RXF 393, 2.95 µM (inactive); with SK-MEL-5, 1.42 µM (inactive). Also, the GI50 in the experiment with SNB-78 was 7.08 µM (inactive); with XF498, 3.91 µM (inactive).

For `Cc1cn([C@@H]2C[C@H](CO)[C@@H](O)C2)c(=O)[nH]c1=O`, the GI50 in the experiment with DMS-114, with DMS-273, in the experiment with HCC 2998, in the experiment with HCT-116, with LXFL 529 and in the experiment on M14 was > 100 µM (inactive) in each case. The GI50 with M19-MEL, with Malme-3M, in the experiment with NCI-H522, with SNB-78 and in the experiment on XF498 was > 100 µM (inactive) in each case.

For the compound `COC1C(=O)CCC2(CO2)C1(O)C1(C)OC1CC=C(C)C` (stereo not drawn), the GI50 was 26.3 µM (inactive) in the experiment with A498; 38.1 µM (inactive) in the experiment with CAKI-1; 17.7 µM (inactive) in the experiment with HCC 2998; 11.3 µM (inactive) in the experiment with HCT-116; 11.1 µM (inactive) in the experiment on M14; 11.8 µM (inactive) with MCF7. In addition, the GI50 in the experiment with MDA-MB-231 is > 100 µM (inactive); in the experiment with MDA-N, 41 µM (inactive); in the experiment with RXF 393, 22.9 µM (inactive); with SK-MEL-5 it was 14.7 µM (inactive); with SR it was 13.9 µM (inactive).

In the case of `Cc1ccc(C2C(Cl)C(=O)N2NC(=O)c2ccc(N)cc2)cc1` (stereo not drawn), the GI50 in the experiment on A498 is 22.5 µM (inactive); in the experiment with CAKI-1 it was 20.1 µM (inactive); in the experiment with DMS-114, 10.2 µM (inactive); with DMS-273, 2.46 µM (inactive); in the experiment on HCC 2998 it was > 100 µM (inactive); in the experiment on HCT-116, 15 µM (inactive). In addition, the GI50 in the experiment with LXFL 529 is 15.5 µM (inactive); in the experiment on M14, 18.7 µM (inactive); in the experiment on M19-MEL it was 19.8 µM (inactive); with Malme-3M, 17.1 µM (inactive); in the experiment on NCI-H522, 12 µM (inactive); with SK-MEL-5, 15.2 µM (inactive). Further, the GI50 with SNB-78 is 5.46 µM (inactive); in the experiment on XF498, 13.3 µM (inactive).

Take `Cc1ccc(C(=O)N/N=C(\N=N\c2ccccc2)c2ccc(N(CCC#N)CCC#N)cc2C)cc1`: the GI50 in the experiment with A498 was > 100 µM (inactive); in the experiment on CAKI-1, 64.6 µM (inactive); with HCC 2998, > 100 µM (inactive); in the experiment on M14, > 100 µM (inactive); in the experiment on MCF7 it was 53.5 µM (inactive); with MDA-MB-231, > 100 µM (inactive). Further, the GI50 is 19.4 µM (inactive) in the experiment with NCI-H522; > 100 µM (inactive) in the experiment on NCI/ADR-RES; 38.9 µM (inactive) in the experiment with RXF 393; 31.8 µM (inactive) in the experiment on SK-MEL-5; > 100 µM (inactive) with SR.

Turning to `C1=C(c2ccccc2)SC(N2CCCCC2)S1` (stereo not drawn), the GI50 is > 100 µM (inactive) in the experiment with A498; 60.1 µM (inactive) in the experiment with DMS-114; > 100 µM (inactive) with DMS-273; > 100 µM (inactive) in the experiment on HCT-116; 77.3 µM (inactive) in the experiment on LXFL 529; > 100 µM (inactive) in the experiment with M14. Further, the GI50 in the experiment with M19-MEL is 68.1 µM (inactive); in the experiment on Malme-3M, 88.7 µM (inactive); with NCI-H522, 66.4 µM (inactive); with RXF 393, > 100 µM (inactive); in the experiment with SNB-78 it was > 100 µM (inactive); in the experiment with SR, 90.8 µM (inactive). In the experiment on XF498, the GI50 is > 100 µM (inactive).

The record behind these values is ChEMBL document CHEMBL1201862, “PubChem BioAssay data set” (2004).
